Key:
serotonin 1A receptor = biological target: T1, serotonin 1A receptor (Rattus norvegicus, UniProt P19327); assay: Binding test on [3H] 8-hydroxy-dipropylaminotetralin (serotonin 1A receptor); details: [3H] 8-OH-DPAT 0.5 nM, receptor fraction of rat hippocampus; read-out: 5HT1a
T1 construct: To the receptor fraction of the hippocampus were added a test compound and 0.5 nM of [^3H]; 8-hydroxy-dipropylaminotetralin; from tissue; host or cells: SD rat hippocampus, membrane (receptor) fraction
T1 sequence (P19327 1-422): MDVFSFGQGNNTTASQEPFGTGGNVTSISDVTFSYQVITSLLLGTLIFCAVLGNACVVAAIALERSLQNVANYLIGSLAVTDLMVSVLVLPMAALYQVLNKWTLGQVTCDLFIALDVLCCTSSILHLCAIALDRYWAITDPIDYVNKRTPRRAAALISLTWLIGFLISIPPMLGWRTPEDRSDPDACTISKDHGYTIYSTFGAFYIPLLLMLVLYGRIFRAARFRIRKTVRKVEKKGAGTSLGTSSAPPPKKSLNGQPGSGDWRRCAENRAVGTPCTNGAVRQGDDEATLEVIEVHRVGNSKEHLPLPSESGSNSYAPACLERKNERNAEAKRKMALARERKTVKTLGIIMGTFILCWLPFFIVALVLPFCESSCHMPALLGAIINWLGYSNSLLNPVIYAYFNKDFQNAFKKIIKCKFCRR

α1 adrenalin receptor = assay: Binding test on [3H] prazosin (α1 adrenalin receptor); set-up: species or system rat; details: [3H] prazosin about 0.2 nM, receptor fraction of rat cerebral cortex
Description: Methysergide maleate was dissolved in distilled water before using.
Use was made of SD rats aged 6 to 8 weeks.
The rats were sacrificed by dcapitation to extirpate the cerebra.
The hippocampus was mixed with 50 times (on the wet weight basis) as much a 0.32 M sucrose solution while the cortex was mixed with 10 times as much the same solution. Each mixture was homogenized by using a Teflon glass homogenizer and centrifuged at 1,000×g for 10 min. The supernatant thus obtained was further centrifuged at 20,000×g for 20 min. The obtained precipitate was re-suspended in 50 times (based on the intial wet weight; in the case of the hippocampus) or 10 times (in the case of the cortex) as much a 50 mM Tris hydrochloride (pH 7.4) and incubated at room temperature for 30 min. After centrifuging at 20,000×g for 20 min, the obtained precipitate was further suspended and centrifuged twice each in the same manner. The precipitate thus obtained was suspended in 100 times (based on the initial wet weight; in the case of the hippocampus) or 20 times (in the case of the cortex) as much a 50 mM Tris hydrochloride solution (pH 7.4) to thereby give a receptor fraction. This receptor fraction was stored at −80° C. until using.
(Binding Test on [^3H] Prazosin)
Next, it was filtered through a glass filter with the use of a cell harvester. After washing the glass filter with 50 mM Tris hydrochloride (pH 7.4), the radioactivity of the receptor was measured with a liquid scintillation counter. The binding detected in the presence of 10 μM of phentolamine was referred to as the nonspecific binding.
Subsequently, the abilities of typical examples of the compounds of the present invention to bind to the α1 adrenalin receptor were evaluated by the test method described above.

serotonin 2 receptor = serotonin 2 receptor (Rattus norvegicus, UniProt P14842); assay: Binding test on [3H] ketanserin (serotonin 2 receptor); details: [3H] ketanserin 0.3 nM, receptor fraction of rat cerebral cortex; read-out: 5HT2
Sequence of serotonin 2 receptor (P14842 whole entry): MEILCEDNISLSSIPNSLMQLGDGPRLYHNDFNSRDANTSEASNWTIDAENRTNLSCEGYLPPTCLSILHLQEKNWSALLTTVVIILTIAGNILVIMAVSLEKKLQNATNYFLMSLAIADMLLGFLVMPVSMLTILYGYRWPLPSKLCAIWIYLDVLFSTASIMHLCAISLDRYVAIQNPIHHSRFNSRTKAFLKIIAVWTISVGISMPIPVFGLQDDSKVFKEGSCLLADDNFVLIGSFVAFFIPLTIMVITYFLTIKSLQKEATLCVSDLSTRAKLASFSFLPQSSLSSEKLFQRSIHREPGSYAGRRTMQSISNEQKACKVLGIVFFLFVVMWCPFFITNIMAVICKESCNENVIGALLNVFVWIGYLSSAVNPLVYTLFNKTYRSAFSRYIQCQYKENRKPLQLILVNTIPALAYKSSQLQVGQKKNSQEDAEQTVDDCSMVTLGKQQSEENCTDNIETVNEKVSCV

Row | SMILES | melting point | Ki (serotonin 1A receptor) [nM] | Ki (α1 adrenalin receptor) [nM] | Ki (serotonin 2 receptor) [nM]
1 | O=C(CCCl)NCc1ccc2ccn(C3CCN(CCc4ccc(F)cc4)CC3)c2c1 [Example 367, 1-[1-(4-fluorophenethyl)piperidin-4-yl]-6-(3-chloropropionylamino)methylindole] | 121 to 122 °C | 1.63 | 45.8 | 1.76
2 | NC(=O)NCc1ccc2ccn(C3CCN(CCc4ccc(F)cc4)CC3)c2c1 [Example 393, 1-[1-(4-fluorophenethyl)piperidin-4-yl]-6-ureidomethylindole] | 171.9 to 172.8 °C | 0.85 | 37.8 | 2.54
3 | O=C(CF)NCc1ccc2ccn(C3CCN(CCc4ccc(F)cc4)CC3)c2c1 [Example 366, 1-[1-(4-fluorophenethyl)piperidin-4-yl]-6-fluoroacetamidomethylindole] | 106 to 108 °C | 0.48 | 74.6 | 2.05
4 | O=C(Cc1ccc2ccn(C3CCN(CCc4ccc(F)cc4)CC3)c2c1)N1CCC(O)CC1 [Example 302, 1-[1-(4-fluorophenethyl)piperidin-4-yl]-6-(4-hydroxypiperidin-1-ylcarbonylmethyl)indole] | 190.5 to 192.2 °C (dec.) | 2.92 | 143 | 60.5
5 | O=S(=O)(CCCCl)NCc1ccc2ccn(C3CCN(CCc4ccc(F)cc4)CC3)c2c1 [Example 325, 1-[1-(4-fluorophenethyl)piperidin-4-yl]-6-(3-chloropropyl)sulfonamidomethylindole] | 143 to 145 °C | 0.65 | 47 | 10.9
6 | CS(=O)(=O)c1ccc2ccn(C3CCN(CCc4ccc(F)cc4)CC3)c2c1 [Example 331, 1-[1-(4-fluorophenethyl)piperidin-4-yl]-6-methanesulfonylindole] | 133 to 135 °C | 0.11 | 77 | 8.28
7 | CC(=O)NCc1ccc2c(Cl)cn(C3CCN(CCc4ccc(F)cc4)CC3)c2c1 [Example 328, 3-chloro-1-[1-(4-fluorophenethyl)piperidin-4-yl]-6-acetamidomethylindole] | 101 to 102 °C | 2.06 | 140 | > 20
8 | CCCNC(=O)Cc1ccc2ccn(C3CCN(CCc4ccc(F)cc4)CC3)c2c1 [Example 297, 1-[1-(4-fluorophenethyl)piperidin-4-yl]-6-(n-propylcarbamoylmethyl)indole] | 131.1 to 131.9 °C | 0.98 | 226 | 4.17
9 | COCCNC(=O)Cc1ccc2ccn(C3CCN(CCc4ccc(F)cc4)CC3)c2c1 [Example 309, 1-[1-(4-fluorophenethyl)piperidin-4-yl]-6-(2-methoxyethyl)carbamoylmethylindole] | 113.2 to 114.4 °C | 3.85 | 123 | 1.02
10 | CN(C)C(=O)Cc1ccc2ccn(C3CCN(CCc4ccc(F)cc4)CC3)c2c1.O=C(O)C(=O)O [Example 301, 1-[1-(4-fluorophenethyl)piperidin-4-yl]-6-dimethylcarbamoylmethylindole Oxalate] | 170.1 to 170.6 °C | 0.8 | 66.9 | 21.9
11 | O=C(CO)NCc1ccc2ccn(C3CCN(CCc4ccc(F)cc4)CC3)c2c1 [Example 364, 1-[1-(4-fluorophenethyl)piperidin-4-yl]-6-hydroxyacetamidomethylindole] | 76 to 78 °C | 1.73 | 289 | 4.23
12 | CC(=O)NCc1ccc2ccn(C3CCN(CCc4cccc(F)c4)CC3)c2c1 [Example 350, 1-[1-(3-fluorophenethyl)piperidin-4-yl]-6-acetamidomethylindole] | 134 to 135 °C | 1.92 | 123 | 11.4
13 | O=C(Cc1ccc2ccn(C3CCN(CCc4ccccc4F)CC3)c2c1)NCCO [Example 346, 1-[1-(2-fluorophenethyl)piperidin-4-yl]-6-(2-hydroxyethyl)carbamoylmethylindole] | 127.7 to 128.6 °C | 13.5 | 116 | 1.49
14 | O=C(CO)NCc1ccc2ccn(C3CCN(CCc4ccccc4F)CC3)c2c1 [Example 383, 1-[1-(2-fluorophenethyl]piperidin-4-yl]-6-hydroxyacetamidomethylindole] | 151 to 152 °C | 5.34 | 120 | 1.81
15 | O=C(Cc1ccc2ccn(C3CCN(CCc4ccc(F)cc4)CC3)c2c1)NCCO [Example 300, 1-[1-(4-fluorophenethyl)piperidin-4-yl]-6-(2-hydroxyethyl)carbamoylmethylindole] | 140 to 141.2 °C | 1.73 | 225 | 3.55
16 | CCCS(=O)(=O)NCc1ccc2ccn(C3CCN(CCc4ccc(F)cc4)CC3)c2c1 [Example 324, 1-[1-(4-fluorophenethyl)piperidin-4-yl]-6-n-propylsulfonamidomethylindole] | 80 to 81 °C | 0.1 | 60.9 | > 20
17 | CN(C)C(=O)NCc1ccc2ccn(C3CCN(CCc4ccc(F)cc4)CC3)c2c1 [Example 385, 1-[1-(4-fluorophenethyl)piperidin-4-yl]-6-N,N-dimethylaminocarbonylaminomethylindole] | 115 to 116 °C | 2.41 | 21.6 | 0.97
18 | OCCOc1ccc2ccn(C3CCN(CCc4ccc(F)cc4)CC3)c2c1 [Example 330, 1-[1-(4-fluorophenethyl)piperidin-4-yl]-6-hydroxyethoxyindole] | 118 to 119 °C | 0.11 | 339 | > 20
19 | CCNC(=O)Cc1ccc2ccn(C3CCN(CCc4ccc(F)cc4)CC3)c2c1 [Example 294, 1-[1-(4-fluorophenethyl)piperidin-4-yl]-6-(ethylcarbamoylmethyl)indole] | 159.6 to 160.1 °C | 1.05 | 80.7 | 2.86
20 | CS(=O)(=O)Oc1ccc2ccn(C3CCN(CCc4ccc(F)cc4)CC3)c2c1 [Example 336, 1-[1-(4-fluorophenethyl)piperidin-4-yl]-6-methanesulfonyloxyindole] | 213 to 215 °C | < 0.2 | 53.7 | > 20
21 | CC(C)CNC(=O)Cc1ccc2ccn(C3CCN(CCc4ccc(F)cc4)CC3)c2c1 [Example 296, 1-[1-(4-fluorophenethyl)piperidin 4-yl]-6-[N-(isobutylcarbamoyl)methyl]indole] | 131.8 to 132.2 °C | 0.32 | 238 | 2.73
22 | CC(=O)NCc1ccc2ccn(C3CCN(CCc4ccccc4F)CC3)c2c1 [Example 352, 1-[1-(2-fluorophenethyl)piperidin-4-yl]-6-acetamidomethylindole] | 101 to 102 °C | 1.58 | 96.7 | 0.75
23 | CCNC(=O)Cc1ccc2ccn(C3CCN(CCc4ccccc4F)CC3)c2c1 [Example 344, 1-[1-(2-fluorophenethyl)piperidin-4-yl]-6-ethylcarbamoylmethylindole] | 147 to 148.6 °C | 1.78 | 74.9 | 1.64
